Seven compounds from ChEMBL document CHEMBL1155890, “Synthesis of scyllo-inositol derivatives and their effects on amyloid beta peptide aggregation” (Bioorg Med Chem, 2008) can be followed below.

Active and inactive are the calls of the source. No cut-off for these calls is given here.

The nature of the first assay: Effect on amyloid beta 42 aggregation assessed as inhibition of fiber formation at 3 mM.
In the case of `O[C@H]1[C@H](O)[C@@H](O)[C@H](O)[C@@H](O)[C@@H]1O`, the result was Active.

Another assay is described as follows: Effect on amyloid beta 42 aggregation assessed as inhibition of fiber formation at 5 mM.
As for `O[C@@H]1[C@@H](O)[C@H](Cl)[C@@H](O)[C@H](O)[C@H]1Cl`, the result was inactive. Still for that read-out and setting: under `O[C@@H]1[C@@H](O)[C@H](F)[C@@H](O)[C@H](O)[C@H]1F` stands “inactive”. Turning to `O[C@@H]1C[C@H](O)[C@@H](O)C[C@H]1O`, the outcome was inactive. Same read-out and setting: under `O[C@@H]1[C@@H](O)[C@H](O)C[C@H](O)[C@H]1O` stands “inactive”. Consider `O[C@@H]1[C@@H](O)[C@H](O)[C@@H](Cl)[C@H](O)[C@H]1O`, for which the outcome was inactive. Consider `CO[C@H]1[C@H](O)[C@@H](O)[C@H](O)[C@@H](O)[C@@H]1O`, for which the outcome was inactive.
